Experimental data: patent US4048305A, “Tripeptides, their esters and amides, and anti-ulcera activity thereof” (Dr. L. Zambeletti S.p.A., priority 1975, dated 1977)
Square brackets hold non-standard residues; d marks the D form. Peptide text beside a SMILES is read from it.

Experiments:
[1] = test system: female rats of "Wistar" strain; assay: Gastro-protective activity, Shay method (pylorus tying) in rats; type: in vivo, rat; conditions: 100 mg/Kg in peanut oil, 18 hours after administration; for Rat (Shay test) Ulcer depth M ± es: arbitrary values 1 to 4, peanut oil controls 2.4 ± 0.5; for Rat (Shay test) No. of ulcers M ± es: ulcers in the rumen, peanut oil controls 10.7 ± 2.2
Procedure: Gastro-protective activity of the products was assayed on rats by employing the Shay method (Shay H., Komarov, S. A., Fels, S. S., Meranze, D;, Gruenstein, M. and Siplet, H:Gastroenterology, 5, 43-61, 1945).
The investigation was performed on female rats of "Wistar" strain, of the average weight of 200 g., which had been held, before experiment, in the cages for 10 days at standard ambient conditions (temperature 22° C, humidity about 50%) on a controlled diet (Altromin).
72 hours before the test the animals, distributed into individual cages, were deprived of food while leaving water "ad libitum".
At the end of this time, the animals were anaesthetized with ether and, by opening the abdomen, the tying of the pylorus was effected as well as, thereafter, the administration of the products in the dose of 100 mg/Kg dissolved into peanut oil. The suture of the abdomen was then performed and the animals were then placed again into their respective contention cages.
For each product 15 animals were used whilst another set of 15 animals, which served as control, was given peanut oil at the same volume as that of the treated ones.
After 18 hours from administration of the products, the animals were killed under chloroformic narcosis, the stomachs were removed and opened along the greter curvature and then fixed on cork supports for counting the number of ulcers present in the "rumen" and for evaluating the depth of the lesions by arbitrarily assigning values ranging from 1 to 4 according to the intensity of the lesion.

[2] = test system: "Swiss" strain male mouse; assay: Acute toxicity (lethality) in mouse, oral; type: in vivo; conditions: for Mouse LD50: Swiss male mouse, fasted 15 hours, suspended in peanut oil, gastric probe
Procedure: The acute toxicity was assayed in "Swiss" strain male mouse weighing 20-24 g. which were held, before the test, in the cages for 10 days at standard ambient conditions (temperature 22° C, humidity about 50%) and kept on a controlled diet (Altromin).
Before the test, the animals were deprived of food for 15 hours, while leaving water "ad libitum".
Lethality was determined on 10 animals for each group-dose by using on the whole 60 animals for each product. For administration, the products were suspended into peanut oil and administered at the maximum volume of 0.1 ml/10 g. of body weight, by means of a gastric probe.

| SMILES | Rat (Shay test) Ulcer depth M ± es [1] | Rat (Shay test) No. of ulcers M ± es [1] | Mouse LD50 [2] [mg/Kg/os] | LD50 ([2]; mouse, oral, in peanut oil) |
| --- | --- | --- | --- | --- |
| COC(=O)[C@H](Cc1c[nH]cn1)NC(=O)[C@@H](Cc1ccccc1)NC(=O)[C@H](Cc1ccccc1)NC(C)=O [N-acetyl-l-phenylalanyl-d-phenylalanyl-l-histidine-methylester] | 1.5 ± 0.4 | 5.6 ± 1.5 | > 5000 | – |
| CNC(=O)[C@H](Cc1c[nH]cn1)NC(=O)[C@H](Cc1ccccc1)NC(=O)[C@H](Cc1ccccc1)NC(C)=O [N-acetyl-l-phenylalanyl-l-phenylalanyl-l-histidine methylamide] (Ac-Phe-Phe-His-NHMe) | 1.4 ± 0.3 | 5.8 ± 1.4 | > 5000 | – |
| CC(=O)N[C@@H](Cc1ccccc1)C(=O)N[C@@H](Cc1ccccc1)C(=O)N[C@@H](Cc1c[nH]cn1)C(N)=O [N-acetyl-l-phenylalanyl-l-phenylalanyl-l-histidineamide] (Ac-Phe-Phe-His-NH2) | 1.1 ± 0.4 | 3.1 ± 1.7 | > 5000 | – |
| CC(=O)N[C@@H](Cc1ccccc1)C(=O)N[C@H](Cc1ccccc1)C(=O)N[C@@H](Cc1c[nH]cn1)C(N)=O [N-acetyl-l-phenylalanyl-d-phenylalanyl-l-histidineamide] (Ac-Phe-[dF]-His-NH2) | 1.3 ± 0.2 | 6.2 ± 1.6 | > 5000 | – |
| COC(=O)[C@H](Cc1c[nH]cn1)NC(=O)[C@H](Cc1ccccc1)NC(=O)[C@H](Cc1ccccc1)NC(C)=O [N-acetyl-l-phenylalanyl-l-phenylalanyl-l-histidine methylester] | 1.1 ± 0.3 | 4.6 ± 1.1 | > 5000 | – |
| CC(=O)N[C@@H](Cc1ccccc1)C(=O)N[C@@H](Cc1ccccc1)C(=O)N[C@@H](Cc1c[nH]cn1)C(=O)O [N-acetyl-l-phenylalanyl-l-phenylalanyl-l-histidine] (Ac-Phe-Phe-His-OH) | 2.1 ± 0.3 | 8.4 ± 1.8 | ≥ 5000 | approximately 5 g./Kg |
| COC(=O)C(Cc1c[nH]cn1)NC(=O)C(Cc1ccccc1)NC(=O)C(Cc1ccccc1)NC(C)=O (mixture of isomers) [N-acetyl-dl-phenylalanyl-dl-phenylalanyl-dl-histidine methylester] | 1.7 ± 0.2 | 6.7 ± 1.7 | > 5000 | – |
